Legend:
3T3-L1 cells = test: Quantitative real-time PCR of adipocyte differentiation related gene expression; type: cell-based
Description: The upstream genes that regulate adipocyte differentiation have been previously reported (F. M. Gregoire, C. M. Smas and H. S. Sul, Understanding adipocyte differentiation. Physiological Reviews, 783 (1998), pp. 783-809.) Among them, aP2, LPL, PPARγ, adiponectin, GLUT4, GLUT1, and C/EBPα were assayed to monitor the regulation of 3T3-L1 preadipocyte differentiation. The housekeeping genes of β-actin and Glyceraldehyde 3-phosphate dehydrogenase (GADPH) were used as control. “do” represents the conditions of the 3T3-L1 preadipocytes before adding inducing agents. In the “NC” groups, the 3T3-L1 preadipocytes were not treated with any inducing agent. Both “do” and “NC” groups were the control groups. In the groups of “insulin,” “E,” and “troglitazone,” the 3T3-L1 preadipocytes were induced with insulin, Compound 1 and insulin, and troglitazone, respectively.
After culturing the 3T3-L1 cells for 9 days, insulin, Compound 1 and insulin, and troglitazone were added to the medium. The cells were further cultivated, and the samples were collected on day 4 (early adipocyte differentiation stage), day 7 (middle stage) and day 9 (late stage) for the following assays.
Total RNA was extracted from 3T3-L1 cells using TRIZOL reagent according to the manufacturer's instructions (GIBCO 15596-026; Molecular Research Center, Inc). 4 μg of total RNA from each sample were reverse-transcribed to cDNA according to the protocol of the reverse transcript system [RevertAid H Minus First Strand cDNA Synthesis Kit (Fementas K1632)] with the oligo (dT)18 primers. A TaqMan One-Step RT-PCR Master Mix reagent kit and inventory primer and probes (Applied Biosystems, Foster, Calif.) were applied for the quantitative real-time PCR followed by a TaqMan gene expression assay. The sequences aP2 (Mm00445878_ml), LPL (Mm00434770_ml), PPARγ (Mm01184322_ml), adiponectin (Mm00456425_ml), GLUT4 (Mm01245502_ml), GLUT1 (Mm01192270_ml), C/EBPα (Mm01265914_sl), C/EBPδ (Mm00786711_sl), β-actin (Mm01205647_gl) and GADPH (Mm99999915_gl) were amplified in the PCR. Levels of mRNAs for housekeeping genes (β-actin and GADPH) were also measured by the real-time PCR. After cDNA synthesis, the quantitative real-time PCR was performed with the ABI Prism 7300 instrument (Applied Biosystems, Foster City, Calif., USA) according to the manufacturer's protocol. The PCR conditions were 1 cycle of 50 ° C. for 2 min, then 95 ° C. for 10 min, followed by 40 cycles of 95 ° C. for 15 seconds and 60 ° C. for 1 min. The quantification was performed in duplicate and the experiments were repeated independently three times.

3T3-L1 preadipocytes = test: Enhancement of 3T3-L1 preadipocyte differentiation in insulin differentiation model (AdipoRed staining / triglyceride); type: cell-based; conditions: for Oil Red assay (% of control): insulin model, 3T3-L1 differentiation
Description: Preadipocytes were prepared according to the method described by Wald et al., (2007, “The small molecule harmine is an antidiabetic cell-type-specific regulator of PPARγ expression.” Cell Metabolism, 5(5): 357-370). Preadipocytes were cultured in DMEM (Dulbecco's Modified Eagle's Medium-high glucose, Sigma D-7777) containing 10% of fetal bovine serum (FBS) and incubated at 37° C. in a 5% CO2 incubator.
Before the differentiation induction experiments, the cells were plated into either 96- or 24-well plates (the concentration of cells in each well was about 2×10^4/cm^2). The plates were incubated for about two days to allow the cells to proliferate to confluence, and then maintained for another two days. The medium was changed to different differentiation media according to different experiments. The day of switching to differentiation medium was designated as day zero.
The differentiation medium used in insulin differentiation model was DMEM with 10% FBS comprising 10 μg/ml of insulin. Differentiation media with various concentrations of Compound 1 were added to each well of the 24- or 96-well 3T3-L1 preadipocyte plates (the final concentration of Compound 1 in each well was 2 μg/ml, 5 μg/ml, 10 μg/ml, and 20 μg/ml, respectively). The control group was the culture with only the differentiation medium and no sample. The cultures were incubated at 37° C. in a 5% CO2 incubator for seven days (during the period, the differentiation medium and sample were replaced with fresh ones twice), and then the medium was replaced by DMEM with 10% FBS. The cultures were maintained until day 9 or day 10 . The cells of the experiment groups and control groups at day 9 or day 10 were stained with AdipoRed and the concentrations of triglyceride were analyzed.
The 96-well plates were rinsed with PBS, and 200 μl of PBS and 5 μl of AdipoRed reagent (Lonze Walkersville, Inc., Walkersville, Md., USA, Catalog No. PT-7009) were added to each well. After 10 to 15 minutes, the plates were read with a spectrofluorometer (Infinite M200) set at an excitation wavelength of 485 nm and an emission wavelength of 572 nm. The fluorescent data of the experiment group was divided by the fluorescent data of the control group to obtain a percentage of induction activity.
The 24-well plates were rinsed with PBS, and the cells were washed off with 0.1 ml of 1% Triton X 100 per well. The cells were then frozen, thawed and centrifuged (10,000 rpm/5 min) and the supernatant was collected. An aliquot of 0.05 ml of the supernatant was analyzed using Triglycerol assay Kit (Audit Diagnostics, Ltd.).
The protein amounts were analyzed using Bio-Rad Dc Protein assay reagent (Bio-Rad). […]

PPARγ-LBD = target: T1, PPARγ-LBD (Homo sapiens, UniProt P37231); test: LanthaScreen TR-FRET PPAR Competitive Binding Assay; conditions: tested at 10-160 μg/ml, 2 hours at room temperature
T1 construct: 10 μL 4× PPARγ-LBD/Tb-anti-GST Ab; purchased Invitrogen PV4894
T1 sequence (P37231 238-503 limits assumed): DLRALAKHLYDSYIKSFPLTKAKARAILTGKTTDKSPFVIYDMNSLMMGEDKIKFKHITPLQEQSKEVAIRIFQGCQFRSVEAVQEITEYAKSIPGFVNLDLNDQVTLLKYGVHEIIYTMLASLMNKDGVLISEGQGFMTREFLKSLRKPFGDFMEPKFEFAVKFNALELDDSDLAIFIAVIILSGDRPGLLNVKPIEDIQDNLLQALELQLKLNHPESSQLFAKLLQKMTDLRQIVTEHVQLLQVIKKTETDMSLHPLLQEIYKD
Description: 10, 20, 40, 80 and 160 μg/ml of Compound 1 were tested in the ligand binding assay conducted following the manuals described in LanthaScreen TR-FRET PPAR Competitive Binding Assay kits (Invitrogen New York, N.Y. Catalog no. PV4894). In a 96-well microtiter plate, the reagents were pipetted into each well in the following order: 20 μL 2× Test Compound, 10 μL 4× Fluormone™ Pan-PPAR Green and 10 μL 4× PPARγ-LBD/Tb-anti-GST Ab in a total assay volume of 40 μl/well. The reagents were gently mixed by placing the microtiter plate on an orbital plate shaker for 30 seconds. The samples were incubated at room temperature (20-25° C.) for 2 hours in the dark allowing the binding of the samples to reach equilibrium. The fluorescent emission signal of each well was measured at 495 nm and 520 nm with an Absorbance Microplate Reader (Spectra Max M5 from Molecular Devices LLC).

[1] = day 4 (early stage), Compound 1 and insulin vs insulin group
[2] = day 7 (middle stage), Compound 1 and insulin vs insulin group
[3] = day 9 (late stage), Compound 1 and insulin vs insulin group
[4] = early, middle and late adipocyte differentiation stages

- PPARγ binding IC50 (PPARγ-LBD): 68 ± 21 µg/mL
Substance: rel-(1S,7aR,3aR)-1-Hexanoyl-5,13-dimethyl-6-(2-oxopentyl)-7a,7-dihydrobenzofuran-2,4-dione [Compound 1]
- expression of C/EBPα, increase compared to insulin group (3T3-L1 cells; [1]): about 50%
- expression of GluT1 relative to insulin group (3T3-L1 cells; [1]): 0.6 fold
- expression of PPARγ, increase compared to insulin group (3T3-L1 cells; [1]): about 50%
- expression of adiponectin, increase compared to insulin group (3T3-L1 cells; [1]): about 50%
- expression of GluT1 relative to insulin group (3T3-L1 cells; [2]): 0.3 fold
- expression of LPL relative to insulin group (3T3-L1 cells; [2]): 0.3 fold
- expression of PPARγ relative to insulin group (3T3-L1 cells; [2]): 1.8 fold
- expression of aP2 relative to insulin group (3T3-L1 cells; [2]): 0.3 fold
- expression of GluT1 relative to insulin control (3T3-L1 cells; day 9 (late stage), Compound 1 and insulin vs insulin control): 0.6 fold
- expression of C/EBPα relative to insulin group (3T3-L1 cells; [3]): 1.59 folds
- expression of PPARγ relative to insulin group (3T3-L1 cells; [3]): 1.35 folds
- expression of adiponectin relative to insulin group (3T3-L1 cells; [3]): 1.49 folds
- effect on the expression of aP2, LPL, adiponectin, GLUT4, and GLUT1 (3T3-L1 cells; [4]): little effect
- effect on the expressions of PPARγ and C/EBPα (3T3-L1 cells; [4]): can stimulate the expressions of PPARγ and C/EBPα
- Oil Red assay (% of control) (3T3-L1 preadipocytes; 2 μg/ml): 127 ± 4 % of control
- Oil Red assay (% of control) (3T3-L1 preadipocytes; 5 μg/ml): 140 ± 5 % of control
- Oil Red assay (% of control) (3T3-L1 preadipocytes; 10 μg/ml): 148 ± 8 % of control
- triglyceride droplets in differentiated adipocytes, inverted microscope (3T3-L1 preadipocytes; 2, 5 and 10 μg/ml vs control culture (insulin only), FIG. 4): more triglyceride droplets than the control culture
